# Source: patent US11098058B2, “Bicyclic ketone compounds and methods of use thereof” (Genentech, Inc., priority 2017, dated 2021)
# Biological target: T1, human RIP1 kinase domain (2-375) (Homo sapiens (Human), UniProt Q13546)
# Experiment: not given
# Conditions: RIP1 kinase inhibition, tight-binding apparent Ki; 50 nM enzyme, 50 μM ATP, 2 hours incubation
# T1 sequence (Q13546 2-375): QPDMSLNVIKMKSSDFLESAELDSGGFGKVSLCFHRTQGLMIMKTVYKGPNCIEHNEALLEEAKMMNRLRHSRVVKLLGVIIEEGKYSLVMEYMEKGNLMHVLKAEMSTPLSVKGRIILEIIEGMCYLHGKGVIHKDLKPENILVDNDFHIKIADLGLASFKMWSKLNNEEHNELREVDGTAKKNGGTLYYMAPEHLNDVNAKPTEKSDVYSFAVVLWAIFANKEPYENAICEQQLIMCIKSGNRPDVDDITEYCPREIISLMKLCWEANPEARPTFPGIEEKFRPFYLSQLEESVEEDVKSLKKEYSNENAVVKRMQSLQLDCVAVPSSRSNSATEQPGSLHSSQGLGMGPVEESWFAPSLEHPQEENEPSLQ
row,Compound,Ki [nM]
1,"CC[C@@H]1C[C@H](F)c2nc(C(=O)C3CC3)nn21 (single isomer, unassigned) [Example 92]",870
2,"O=C(c1nc2n(n1)[C@H](c1cc(F)ccc1F)C[C@@H]2F)C1CC1 [Example 101, cyclopropyl-[(5S,7S)-5-(2,5-difluorophenyl)-7-fluoro-6,7-dihydro-5H-pyrrolo[1,2-b][1,2,4]triazol-2-yl]methanone]",3.6
3,"Cn1cc(Cl)c([C@@H]2C[C@@H](F)c3nc(C(=O)C4CC4)nn32)n1 [Example 155, ((5S,7R)-5-(4-chloro-1-methyl-1H-pyrazol-3-yl)-7-fluoro-6,7-dihydro-5H-pyrrolo[1,2-b][1,2,4]triazol-2-yl)(cyclopropyl)methanone]",970
4,"O=C(c1cc2n(n1)[C@H](c1ccccc1)C[C@@H]2F)C1CC1 (single isomer, unassigned) [Example 108]",3.7
5,"O=C(c1nc2n(n1)C(c1ccccc1)CCC2)C1CC1 (centres unmarked) [Example 145, cyclopropyl-(5-phenyl-5,6,7,8-tetrahydro-[1,2,4]triazolo[1,5-a]pyridin-2-yl)methanone]",260
6,"O=C(c1nc2n(n1)[C@H](c1ccc(F)cc1)C[C@@H]2F)C1CC1 (single isomer, unassigned) [Example 85]",9
7,"Cc1oncc1C1CC(F)c2nc(C(=O)C3CC3)nn21 (centres unmarked) [Example 153, cyclopropyl(7-fluoro-5-(5-methylisoxazol-4-yl)-6,7-dihydro-5H-pyrrolo[1,2-b][1,2,4]triazol-2-yl)methanone]",380
8,"O=C(c1nc2n(n1)[C@H](c1ccccc1Cl)C[C@@H]2F)C1CC1 [Example 100, cyclopropyl-[(5S,7S)-5-(2-chlorophenyl)-7-fluoro-6,7-dihydro-5H-pyrrolo[1,2-b][1,2,4]triazol-2-yl]methanone]",3.5
9,"O=C(c1nc2n(n1)C(c1ccccc1)CC2)C1(Cn2cccn2)CC1 (centres unmarked) [Example 158, (5-phenyl-6,7-dihydro-5H-pyrrolo[1,2-b][1,2,4]triazol-2-yl)-[1-(pyrazol-1-ylmethyl)cyclopropyl]methanone]",650
10,"O=C(c1nc2n(n1)[C@H](c1ccccc1)CCC2)C1CC1 (single isomer, unassigned) [Example 146]",70
11,"COc1cccc([C@@H]2C[C@H](F)c3nc(C(=O)C4CC4)nn32)c1 (single isomer, unassigned) [Example 156]",20
12,"O=C(c1nc2n(n1)[C@H](c1ncccc1F)C[C@H]2F)C1CC1 (single isomer, unassigned) [Example 151]",230
13,"O=C(c1nc2n(n1)[C@H](c1cc(F)cc(F)c1F)C[C@@H]2F)C1CC1 (single isomer, unassigned) [Example 107]",3.9
14,"O=C(c1cc2n(n1)[C@H](c1ccccc1)C[C@@H]2F)C1CC1 (single isomer, unassigned) [Example 159]",5
15,"N#Cc1ccccc1[C@@H]1C[C@H](F)c2nc(C(=O)C3CC3)nn21 (single isomer, unassigned) [Example 124]",61
16,"O=C(c1nc2n(n1)[C@H](c1c(F)cccc1F)C[C@@H]2F)C1CC1 (single isomer, unassigned) [Example 94]",3.1
17,"Cn1cc(Cl)c([C@@H]2C[C@H](F)c3nc(C(=O)C4CC4)nn32)n1 [Example 154, ((5S,7S)-5-(4-chloro-1-methyl-1H-pyrazol-3-yl)-7-fluoro-6,7-dihydro-5H-pyrrolo[1,2-b][1,2,4]triazol-2-yl)(cyclopropyl)methanone]",32
18,"Cn1cc([C@@H]2C[C@H](F)c3nc(C(=O)C4CC4)nn32)cn1 (single isomer, unassigned) [Example 152]",30
19,"O=C(c1nc2n(n1)[C@H](c1ncccc1F)C[C@@H]2F)C1CC1 (single isomer, unassigned) [Example 150]",10

# Further lines, results first:
row,Ki [nM],Compound
1,17,"O=C(c1nc2n(n1)[C@H](c1ccccc1)C[C@@H]2F)C1CC2(C1)CC2(F)F (stereo partly drawn) [Example 70, (2,2-difluorospiro[2.3]hexan-5-yl)-[(5S,7S)-7-fluoro-5-phenyl-6,7-dihydro-5H-pyrrolo[1,2-b][1,2,4]triazol-2-yl]methanone]"
2,3.7,"N#CCC1(C(=O)c2nc3n(n2)[C@H](c2ccccc2)C[C@@H]3F)CC1 (single isomer, unassigned) [Example 83]"
3,2.7,"N#CC1(C(=O)c2nc3n(n2)[C@H](c2ccccc2)C[C@@H]3F)CC1 (single isomer, unassigned) [Example 95]"
4,150,"O=C(c1nc2n(n1)[C@H](c1ccccc1)C[C@@H]2F)[C@@H]1C[C@H]2CC[C@@H]1O2 (single isomer, unassigned) [Example 140]"
5,3.5,"O=C(c1nc2n(n1)[C@H](c1ccccc1)C[C@@H]2F)C1CC2(CC2)C1 (single isomer, unassigned) [Example 76]"
6,560,"O=C(c1nc2n(n1)[C@H](c1ccccc1)C[C@H]2Cl)C1CC1 (single isomer, unassigned) [Example 117]"
7,3.4,"O=C(c1nc2n(n1)[C@H](c1ccccc1)C[C@@H]2F)C1CC(F)(F)C1 (single isomer, unassigned) [Example 73]"
8,790,"O=C(c1nc2n(n1)[C@@H](c1ccccc1)C[C@H]2Cl)C1CC1 (single isomer, unassigned) [Example 115]"
9,3.4,"O=C(c1nc2n(n1)[C@H](c1ccccc1)C[C@@H]2F)C1(CF)CC1 [Example 79, [1-(fluoromethyl)cyclopropyl]-[(5S,7S)-7-fluoro-5-phenyl-6,7-dihydro-5H-pyrrolo[1,2-b][1,2,4]triazol-2-yl]methanone]"
10,110,"O=C(c1nc2n(n1)[C@H](c1ccccc1)C[C@@H]2F)C1(c2ccccn2)CC1 (single isomer, unassigned) [Example 98]"
11,18,"O=C(c1nc2n(n1)[C@H](c1ccccc1)C[C@@H]2F)C1CC1c1ccccn1 (stereo partly drawn) [Example 74, [2-(2-pyridyl)cyclopropyl]-[(5S,7S)-7-fluoro-5-phenyl-6,7-dihydro-5H-pyrrolo[1,2-b][1,2,4]triazol-2-yl]methanone]"
12,3.6,"O=C(c1nc2n(n1)[C@H](c1ccccc1)C[C@@H]2F)C1CC12CC2 (single isomer, unassigned) [Example 96]"
13,2.9,"O=C(c1nc2n(n1)[C@H](c1ccccc1)C[C@@H]2F)C1(C2CC2)CC1 (single isomer, unassigned) [Example 99]"
14,3.4,"C[C@@H]1C[C@H]1C(=O)c1nc2n(n1)[C@H](c1ccccc1)C[C@@H]2F (single isomer, unassigned) [Example 91]"
15,33,"O=C(c1nc2n(n1)[C@H](c1ccccc1)C[C@@H]2F)C1C2CC(F)(F)CC21 (single isomer, unassigned) [Example 80]"
16,180,"O=C(c1nc2n(n1)[C@H](c1ccccc1)C[C@H]2O)C1CC1 (single isomer, unassigned) [Example 88]"
17,10,"O=C(c1nc2n(n1)[C@H](c1ccccc1)C[C@@H]2F)C1CC2C(C1)C2(F)F (single isomer, unassigned) [Example 82]"
18,13,"O=C(c1nc2n(n1)[C@H](c1ccccc1)C[C@@H]2O)C1CC1 (single isomer, unassigned) [Example 87]"
19,4,"O=C(c1nc2n(n1)[C@H](c1ccccc1)C[C@@H]2Cl)C1CC1 (single isomer, unassigned) [Example 116]"
20,4.9,"O=C(c1nc2n(n1)[C@H](c1ccccc1)C[C@@H]2F)C1(CO)CC1 (single isomer, unassigned) [Example 72]"
21,15,"C[C@H]1C[C@@H]1C(=O)c1nc2n(n1)[C@H](c1ccccc1)C[C@@H]2F (single isomer, unassigned) [Example 89]"
22,9,"O=C(c1nc2n(n1)[C@H](c1ccccc1)C[C@@H]2F)[C@H]1C[C@@H]2CC[C@H]1O2 (single isomer, unassigned) [Example 141]"

# Same assay, conditions: tight-binding apparent inhibition constant (Ki app, Morrison equation); 50 nM enzyme, 50 μM ATP, 2 hours incubation
row,Compound,Ki [nM]
1,"CCC(=O)c1cn2c(n1)C(c1ccccc1)CC2 (centres unmarked) [Example 17, 1-(7-phenyl-6,7-dihydro-5H-pyrrolo[1,2-a]imidazol-2-yl)propan-1-one]",940
2,"CCC(=O)c1cc2n(n1)C(c1ccccc1)CC2 (centres unmarked) [Example 19, 1-(6-phenyl-5,6-dihydro-4H-pyrrolo[1,2-b]pyrazol-2-yl)propan-1-one]",44.2
3,"CCC(=O)c1cc2n(n1)CC[C@H]2c1ccccc1 (single isomer, unassigned) [Example 23]",2180
4,"CCC(=O)c1cc2n(n1)CC[C@@H]2c1ccccc1 (single isomer, unassigned) [Example 24]",> 10000

# Other lines, results leading:
row,Ki [nM],Compound
1,> 10000,"CC1(C(=O)c2nc3n(n2)[C@@H](c2ccccc2)C[C@H]3F)COC1 (single isomer, unassigned) [Example 55]"
2,28,"CC1(C(=O)c2nc3n(n2)[C@H](c2ccccc2)C[C@@H]3F)COC1 (single isomer, unassigned) [Example 54]"

# Biological target: T1, human RIP1 kinase domain (2-375)
# Experiment: biochemical
# Conditions: RIP1 kinase inhibition, tight-binding apparent Ki, 50 nM enzyme, 50 μM ATP, 2 hours incubation
row,Ki [nM],Compound
1,140,"O=C(c1nc2n(n1)[C@H](c1ccccc1)C[C@@H]2F)[C@@H]1C[C@@H]2CC[C@H]1O2 (racemic) [Example 139, [rac-(5S,7S)-7-fluoro-5-phenyl-6,7-dihydro-5H-pyrrolo[1,2-b][1,2,4]triazol-2-yl]-[rac-(1R,2R,4S)-7-oxabicyclo[2.2.1]heptan-2-yl]methanone]"
2,< 5,"C[C@@]1(C(=O)c2nc3n(n2)[C@H](c2ccccc2)C[C@@H]3F)CCOC1 (racemic) [Example 137, [rac-(5S,7S)-7-fluoro-5-phenyl-6,7-dihydro-5H-pyrrolo[1,2-b][1,2,4]triazol-2-yl]-[rac-(3R)-3-methyltetrahydrofuran-3-yl]methanone]"

# Same assay, conditions: tight-binding apparent inhibition constant (Ki app, Morrison equation), 50 nM enzyme, 50 μM ATP, 2 hours incubation
row,Ki [nM],Compound
1,193,"CCC(=O)c1nc2n(n1)[C@@H](c1ccccc1)C[C@@H]2F (racemic) [Example 13, 1-[rac-(5R,7S)-7-fluoro-5-phenyl-6,7-dihydro-5H-pyrrolo[1,2-b][1,2,4]triazol-2-yl]propan-1-one]"
